ChEMBL document CHEMBL1201862, “PubChem BioAssay data set” (2004)
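Results reflect a 48-hour exposure of cells in 96-well plates to compound at five concentrations. GI50: concentration for 50% inhibition of growth.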 Calls of active or inactive are those of the source. Cut-off read from the data, not from the text of the source: active = GI50 up to about 1.1 µM and inactive = higher.

What was measured:
Assay in all cases: NCI anticancer screen, dose series, 48 h
A498 = tested on: A498
ACHN = tested on: ACHN
CCRF-CEM = tested on: CCRF-CEM
HCT-116 = tested on: HCT-116
HOP-92 = tested on: HOP-92
HT-29 = tested on: HT-29
IGROV-1 = tested on: IGROV-1
K562 = tested on: K562
MCF7 = tested on: MCF7
NCI-H23 = tested on: NCI-H23
OVCAR-3 = tested on: OVCAR-3
OVCAR-5 = tested on: OVCAR-5
RXF 393 = tested on: RXF 393
SF-268 = tested on: SF-268
SNB-75 = tested on: SNB-75
T47D = tested on: T47D
TK-10 = tested on: TK-10
U-251 = tested on: U-251
UO-31 = tested on: UO-31
SW-620 = tested on: SW-620

SMILES | GI50 (A498) | GI50 (ACHN) | GI50 (CCRF-CEM) | GI50 (HCT-116) | GI50 (HOP-92) | GI50 (HT-29) | GI50 (IGROV-1) | GI50 (K562) | GI50 (MCF7) | GI50 (NCI-H23) | GI50 (OVCAR-3) | GI50 (OVCAR-5) | GI50 (RXF 393) | GI50 (SF-268) | GI50 (SNB-75) | GI50 (T47D) | GI50 (TK-10) | GI50 (U-251) | GI50 (UO-31) | GI50 (SW-620)
CC1(C)OC(=O)CC12CCN(Cc1ccccc1)CC2 | > 100 µM (inactive) | > 100 µM (inactive) | > 100 µM (inactive) | > 100 µM (inactive) | > 100 µM (inactive) | > 100 µM (inactive) | > 100 µM (inactive) | > 100 µM (inactive) | > 100 µM (inactive) | > 100 µM (inactive) | > 100 µM (inactive) | > 100 µM (inactive) | > 100 µM (inactive) | > 100 µM (inactive) | > 100 µM (inactive) | > 100 µM (inactive) | > 100 µM (inactive) | > 100 µM (inactive) | > 100 µM (inactive) | –
Clc1ccc(/C=N/c2ccc3c(c2)Cc2ccccc2-3)c(Cl)c1 | > 100 µM (inactive) | > 100 µM (inactive) | 88.5 µM (inactive) | 58.1 µM (inactive) | > 100 µM (inactive) | > 100 µM (inactive) | > 100 µM (inactive) | 58.3 µM (inactive) | > 100 µM (inactive) | > 100 µM (inactive) | > 100 µM (inactive) | > 100 µM (inactive) | > 100 µM (inactive) | > 100 µM (inactive) | > 100 µM (inactive) | > 100 µM (inactive) | > 100 µM (inactive) | > 100 µM (inactive) | > 100 µM (inactive) | > 100 µM (inactive)
COC(=O)c1cc(C#N)[nH]c1-c1ccc(Br)s1 | 1.03 µM (active) | 13.7 µM (inactive) | 21.1 µM (inactive) | 13.5 µM (inactive) | 4.1 µM (inactive) | 12.4 µM (inactive) | 7.21 µM (inactive) | > 30.8 µM (inactive) | 0.459 µM (active) | 5.08 µM (inactive) | 3.58 µM (inactive) | 11.2 µM (inactive) | 4.3 µM (inactive) | 10.1 µM (inactive) | 8.85 µM (inactive) | 1.17 µM (inactive) | 13 µM (inactive) | 10.4 µM (inactive) | 5.7 µM (inactive) | 15.9 µM (inactive)
O=C1/C(=C2\Sc3c(ccc(Cl)c3Cl)C2=O)Sc2c1ccc(Cl)c2Cl | > 100 µM (inactive) | > 100 µM (inactive) | > 100 µM (inactive) | > 100 µM (inactive) | > 100 µM (inactive) | > 100 µM (inactive) | > 100 µM (inactive) | > 100 µM (inactive) | > 100 µM (inactive) | > 100 µM (inactive) | 12.5 µM (inactive) | > 100 µM (inactive) | 89.1 µM (inactive) | > 100 µM (inactive) | 20.3 µM (inactive) | > 100 µM (inactive) | > 100 µM (inactive) | > 100 µM (inactive) | > 100 µM (inactive) | > 100 µM (inactive)
Cc1cc2c([N+](=O)[O-])cc3c(c2o1)C(=O)C=CC3=O | 15.5 µM (inactive) | 1.89 µM (inactive) | 1.43 µM (inactive) | 5.51 µM (inactive) | 1.72 µM (inactive) | 2.12 µM (inactive) | 7.41 µM (inactive) | 1.79 µM (inactive) | 4.18 µM (inactive) | 17.7 µM (inactive) | 5.64 µM (inactive) | 20 µM (inactive) | 1.89 µM (inactive) | 12.4 µM (inactive) | 25.6 µM (inactive) | 3.12 µM (inactive) | 2.38 µM (inactive) | 17.7 µM (inactive) | 1.67 µM (inactive) | 2.43 µM (inactive)
CCOc1cc(NC(C)=O)ccc1C(=O)NN1C(=O)CSC1c1ccc(O)c(OC)c1 (stereo not given) | > 100 µM (inactive) | 51.4 µM (inactive) | 40.8 µM (inactive) | 60.1 µM (inactive) | 59.7 µM (inactive) | 73.6 µM (inactive) | 60.4 µM (inactive) | 40.7 µM (inactive) | 44.7 µM (inactive) | 61.7 µM (inactive) | 58.7 µM (inactive) | > 100 µM (inactive) | 34.7 µM (inactive) | 71.4 µM (inactive) | 85.3 µM (inactive) | 32.4 µM (inactive) | 6.67 µM (inactive) | – | 10.8 µM (inactive) | 87.7 µM (inactive)
CCc1nc(N)nc(N)c1-c1ccc(NCCc2ccccc2)c([N+](=O)[O-])c1 | 3.05 µM (inactive) | 0.353 µM (active) | 0.297 µM (active) | 0.0649 µM (active) | 2.21 µM (inactive) | 0.195 µM (active) | 0.394 µM (active) | 0.0325 µM (active) | 1.13 µM (inactive) | 0.392 µM (active) | 1.44 µM (inactive) | 17.2 µM (inactive) | 3.55 µM (inactive) | 0.527 µM (active) | 3.56 µM (inactive) | 4.51 µM (inactive) | 13.3 µM (inactive) | 0.364 µM (active) | 1.86 µM (inactive) | 0.163 µM (active)
CCOC(=O)C(NC(=O)CC)(N1CCN(c2cc3c(cc2F)c(=O)c(C(=O)O)cn3C2CC2)CC1)C(F)(F)F (stereo not given) | > 100 µM (inactive) | > 100 µM (inactive) | 91.8 µM (inactive) | > 100 µM (inactive) | 70.8 µM (inactive) | > 100 µM (inactive) | > 100 µM (inactive) | > 100 µM (inactive) | > 100 µM (inactive) | > 100 µM (inactive) | > 100 µM (inactive) | > 100 µM (inactive) | > 100 µM (inactive) | > 100 µM (inactive) | > 100 µM (inactive) | > 100 µM (inactive) | > 100 µM (inactive) | 92.9 µM (inactive) | > 100 µM (inactive) | > 100 µM (inactive)
COc1cc2c(/C=C3/C(=O)Nc4ccccc43)c(Cl)n(Cc3ccc(Cl)cc3)c2cc1C | 0.733 µM (active) | 0.324 µM (active) | 0.29 µM (active) | 0.264 µM (active) | 11.8 µM (inactive) | 0.296 µM (active) | 0.538 µM (active) | 0.365 µM (active) | 0.491 µM (active) | 0.24 µM (active) | 0.207 µM (active) | 0.656 µM (active) | 0.339 µM (active) | 0.675 µM (active) | 0.237 µM (active) | 0.52 µM (active) | 0.565 µM (active) | 0.307 µM (active) | 0.826 µM (active) | 0.472 µM (active)
C/C(=C\c1ccccc1)C(=O)NCc1ccc(C(=O)NCCc2c[nH]c3ccccc23)cc1 | 22 µM (inactive) | 38.1 µM (inactive) | 2.39 µM (inactive) | 58.3 µM (inactive) | > 100 µM (inactive) | > 100 µM (inactive) | > 100 µM (inactive) | > 100 µM (inactive) | 24.3 µM (inactive) | 80.4 µM (inactive) | 42 µM (inactive) | > 100 µM (inactive) | > 100 µM (inactive) | > 100 µM (inactive) | > 100 µM (inactive) | > 100 µM (inactive) | 16.4 µM (inactive) | > 100 µM (inactive) | 51.6 µM (inactive) | > 100 µM (inactive)
CC(C)(C)OC(=O)NC(Cc1ccc(OC(C)(C)C)cc1)C(=O)N[C@H]1CCC[C@H]1C(=O)NC(Cc1ccccc1)C(=O)N1CCCC1C(N)=O (stereo not given in full) | > 100 µM (inactive) | > 100 µM (inactive) | > 100 µM (inactive) | > 100 µM (inactive) | > 100 µM (inactive) | > 100 µM (inactive) | > 100 µM (inactive) | > 100 µM (inactive) | > 100 µM (inactive) | > 100 µM (inactive) | > 100 µM (inactive) | > 100 µM (inactive) | > 100 µM (inactive) | > 100 µM (inactive) | > 100 µM (inactive) | > 100 µM (inactive) | > 100 µM (inactive) | > 100 µM (inactive) | > 100 µM (inactive) | > 100 µM (inactive)
NC1=CC(C(=O)c2ccncc2)c2nc3ccccc3nc21 (stereo not given) | > 100 µM (inactive) | 59.2 µM (inactive) | > 100 µM (inactive) | > 100 µM (inactive) | > 100 µM (inactive) | 68.5 µM (inactive) | 46.6 µM (inactive) | – | > 100 µM (inactive) | 63 µM (inactive) | > 100 µM (inactive) | > 100 µM (inactive) | > 100 µM (inactive) | > 100 µM (inactive) | 52 µM (inactive) | > 100 µM (inactive) | > 100 µM (inactive) | > 100 µM (inactive) | > 100 µM (inactive) | > 100 µM (inactive)
Clc1ccccc1-c1nn2c(CCCCCCCCc3nnc4sc(-c5ccccc5Cl)nn34)nnc2s1 | > 100 µM (inactive) | > 100 µM (inactive) | 61.7 µM (inactive) | > 100 µM (inactive) | > 100 µM (inactive) | 52.1 µM (inactive) | – | > 100 µM (inactive) | 52.2 µM (inactive) | > 100 µM (inactive) | > 100 µM (inactive) | > 100 µM (inactive) | > 100 µM (inactive) | > 100 µM (inactive) | > 100 µM (inactive) | > 100 µM (inactive) | > 100 µM (inactive) | > 100 µM (inactive) | > 100 µM (inactive) | > 100 µM (inactive)
CN(C)/N=C1\C=C2CC[C@H](O[Si](C)(C)C(C)(C)C)[C@@]2(C)CC1 | 17.8 µM (inactive) | 16.5 µM (inactive) | 11.8 µM (inactive) | – | 15.2 µM (inactive) | 19 µM (inactive) | 21.7 µM (inactive) | 15.5 µM (inactive) | 15.6 µM (inactive) | 23.2 µM (inactive) | 14.5 µM (inactive) | 16.9 µM (inactive) | 14.2 µM (inactive) | 19.7 µM (inactive) | 16.3 µM (inactive) | 12.2 µM (inactive) | 19.7 µM (inactive) | 16.2 µM (inactive) | 16.3 µM (inactive) | 17.5 µM (inactive)
